Test results as given in US20120225909A1, “INDAZOLE ANALOG” (priority 2009, published 2012).

Legend:
[1] = target: T1, human β2-adrenergic receptor (Homo sapiens, UniProt P07550); assay: Test Case 3-C: human β2-adrenergic receptor agonist activity (Cerep cellular functional GPCR, beta 2); assay type: cell-based; details: concentration 10 μM, isoproterenol = 100%
T1 construct: expressed in transfected cells; host or cells: CHO (Chinese hamster ovary) cells, pcDNA3
Text: (§1) Measurement of Human β2-Adrenergic Receptor Agonist Activity

[2] = target: T2, human β1-adrenergic receptor (Homo sapiens, UniProt P08588); assay: Test Case 2-C: human β1-adrenergic receptor agonist activity (Cerep cellular functional GPCR, beta 1); assay type: cell-based; details: concentration 10 μM, isoproterenol = 100%
T2 construct: expressed in transfected cells; host or cells: CHO (Chinese hamster ovary) cells, pcDNA3
Text: (§2) Measurement of Human β1-Adrenergic Receptor Agonist Activity

[3] = target: T3, human α1A-adrenergic receptor (Homo sapiens, UniProt P35348); assay: Test Case 4-B: human α1A-adrenergic receptor agonist activity (Cerep cellular functional GPCR, alpha 1A); assay type: cell-based; design: expressed in transfected cells; details: concentration 10 μM; for α1 receptor % of Control Agonist Response, Control; Epinephrine: epinephrine = 100%; for α1 receptor % of Control Agonist Response, Control; Norepinephrine: norepinephrine = 100%
T3 sequence (P35348 1-466): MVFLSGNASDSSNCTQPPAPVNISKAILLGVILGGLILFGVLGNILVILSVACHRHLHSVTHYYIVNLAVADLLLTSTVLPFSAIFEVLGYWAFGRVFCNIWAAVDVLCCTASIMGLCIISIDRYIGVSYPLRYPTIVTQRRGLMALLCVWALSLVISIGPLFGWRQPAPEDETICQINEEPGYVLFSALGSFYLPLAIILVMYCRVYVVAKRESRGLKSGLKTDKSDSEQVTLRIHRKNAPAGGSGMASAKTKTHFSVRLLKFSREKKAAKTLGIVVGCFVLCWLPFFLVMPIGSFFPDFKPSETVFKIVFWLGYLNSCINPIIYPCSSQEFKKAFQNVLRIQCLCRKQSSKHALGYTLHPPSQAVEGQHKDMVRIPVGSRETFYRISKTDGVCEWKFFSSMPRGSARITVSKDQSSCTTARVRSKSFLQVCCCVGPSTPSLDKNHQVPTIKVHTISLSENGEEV
Text: Measurement of Human α1A-Adrenergic Receptor Agonist Activity
The human α1A-adrenergic receptor agonist activity] can be measured by […] Functional GPCR·Gs, alpha 1A (Ref. 722-36a) listed on p. 52 of the Cerep 2008 CATALOG IN VITRO PHARMACOLOGY & ADME-TOX.

[4] = target: T3, human α1A-adrenergic receptor; assay: Test Case 4-A: human α1A-adrenergic receptor agonist activity (HEK293, Ca flux, Fura-2); assay type: cell-based; design: expressed in transfected cells; host or cells: HEK293 cells, pcDNA3.1; details: for Emax: HEK293, read-out: α1A receptor I.A.; for α1A receptor I.A.: Test Case 4-A, maximum response of norepinephrine = 100%, Table 4
Procedure, shortened: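 Fura-2AM-loaded HEK293 cells transfected with human α1A were preincubated for 180 s. Compound (sample plate 10^−5 to 10^−12 M) was added after ~30 s of 340/380 nm excitation ratio reading (500 nm emission, 2-s intervals), followed by 270 s more reading. Ca flux is the peak height: maximum ratio after addition minus the pre-addition ratio.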

[5] = target: T4, human β3-adrenergic receptor (Homo sapiens, UniProt P13945); assay: Test Case 1-B: human β3-adrenergic receptor agonist activity (cAMP-Screen, 96-well); assay type: cell-based; details: for Emax: 0.5 h, read-out: β3 receptor I.A.; for EC50 / β3 receptor I.A.: Test Case 1-B; for EC50: CHO cells, cAMP; for β3 receptor I.A.: maximum response of isoproterenol = 100%
T4 construct: A full-length human β3 gene is obtained from a human genomic library (made by Clontech) using this as the probe; expressed in transfected cells; host or cells: CHO (Chinese hamster ovary) cells, pcDNA3
Procedure, shortened: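 CHO cells stably transfected with full-length human β3 gene, serum-starved 15 min, then exposed to serially diluted compound in Ham's F-12 with 100 mmol/L HEPES and 1 mmol/L IBMX (diluent concentrations) for 30 min. Cells lysed 30 min at 37 °C; cAMP quantified by cAMP-Screen immunoassay.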

[6] = target: T2, human β1-adrenergic receptor; assay: Test Case 2-B: human β1-adrenergic receptor agonist activity; assay type: cell-based; details: for Emax: read-out: β1 receptor I.A.; for β1 receptor I.A.: Test Case 2-B, maximum response of isoproterenol = 100%
Experimental: as §2
The human β1-adrenergic receptor agonist activity is measured by the same method as in Test Case 1-B using CHO (Chinese hamster ovary) cells transfected by a human β1 gene inserted in pcDNA3 (Invitrogen).

[7] = system: pentobarbital-anesthetized rats; assay: Test Case 9: effects on the blood pressure and heart rate in pentobarbital-anesthetized rats; assay type: in vivo, rat
Experimental: Effects on the blood pressure and heart rate in pentobarbital-anesthetized rats
The blood pressure and heart rate of rats under pentobarbital anesthesia are measured, and the effects of rapid intravenous administration of the test compound on the blood pressure and heart rate can be studied. After anesthetizing male SD rats (Japan SLC) by intraperitoneal administration of 50 mg/kg of pentobarbital sodium (Tokyo Chemical Industry Co., Ltd.), 25 mg/kg of pentobarbital sodium is administered subcutaneously as maintenance anesthesia. The left femoral vein is exposed and stripped, and a SP10 polyethylene tube filled with saline (connected to a three-way stopcock via a ¼ venous needle) is inserted and left in place in the vein.
The inside of the left thigh is cut, and the femoral artery is exposed and stripped. A polyethylene tube filled with heparinized physiological saline solution (SP31, connected to a three-way stopcock via a Terumo injection needle 22G) is inserted and connected to a pressure transducer. The blood pressure is measured from the pressure transducer via a strain pressure amplifier (AP-641G, Nihon Kohden). The heart rate is measured with the pulse wave of the blood pressure as a trigger via a heart rate counter (AT-601G, Nihon Kohden). The blood pressure, mean blood pressure, and heart rate are output to a recorder and recorded. Furthermore, the mean blood pressure is recorded via the strain pressure amplifier (AP-641G) using the formula {[…]}.
Specifically, 3 mg/mL of test compound is administered rapidly at a volume of 1 mL/kg. The relative value (%) of the values at each point in time versus the mean blood pressure and heart rate before beginning administration are determined for each individual, and the mean±standard deviation of the relative value (%) at the time of the maximum change in each parameter is determined.

[8] = target: T1, human β2-adrenergic receptor; assay: Test Case 3-B: human β2-adrenergic receptor agonist activity; assay type: cell-based; details: for Emax: read-out: β2 receptor I.A.; for β2 receptor I.A.: Test Case 3-B, maximum response of isoproterenol = 100%
Experimental: as §1
The human β2-adrenergic receptor agonist activity is measured by the same method as in Test Case 1-B using CHO (Chinese hamster ovary) cells transfected by a human β2 gene inserted in pcDNA3 (Invitrogen).

Male C57BL/6 Cr mice = assay: Test Case 10: mouse piloerection test; assay type: in vivo; details: in vivo, iv, 10 mg/kg
Experimental: Male C57BL/6 Cr mice (Japan SLC) are used. The dissolved compound is administered rapidly via a caudal vein. The animal is placed on the observation stand 5, 15, 30, and 60 minutes after administration, and the state of piloerection is observed. The state of piloerection is evaluated by the following 7-level scoring system according to the examples by the method of Irwin (Psychopharmacologia 1968, 13; 222-257).
Scoring system: “Score 0”: No piloerection at all; “Score 1”: Slight piloerection (piloerection on part of the body such as the back or neck); “Score 2”: Moderate piloerection (piloerection over the entire body); “Score 3”: Marked piloerection (piloerection over the entire body, conspicuous to the extent that the skin can be seen).
“Score 0.5” is between “Score 0” and “Score 1” “Score 1.5” is between […]. “Score 2.5” is between “Score 2” and “Score 3.”

[9] = anesthetized male SD rats, 3 mg/kg intravenous over 30 seconds, maximum change, mean±standard deviation, 3 mg/kg
[10] = anesthetized male SD rats, 3 mg/kg intravenous over 30 seconds, maximum change, mean±standard deviation

T1 sequence (P07550 whole entry): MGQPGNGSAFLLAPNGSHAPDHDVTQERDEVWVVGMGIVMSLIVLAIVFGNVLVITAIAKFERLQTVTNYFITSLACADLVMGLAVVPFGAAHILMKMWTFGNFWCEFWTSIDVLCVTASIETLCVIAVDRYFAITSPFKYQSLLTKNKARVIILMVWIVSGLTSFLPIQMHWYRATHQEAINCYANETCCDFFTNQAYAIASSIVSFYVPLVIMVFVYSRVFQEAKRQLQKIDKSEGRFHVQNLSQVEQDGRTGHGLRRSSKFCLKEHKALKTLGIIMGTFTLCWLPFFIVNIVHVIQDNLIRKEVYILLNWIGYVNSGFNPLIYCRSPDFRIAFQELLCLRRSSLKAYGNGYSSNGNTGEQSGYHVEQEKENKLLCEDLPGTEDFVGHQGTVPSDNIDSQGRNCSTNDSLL
T4 sequence (P13945 whole entry): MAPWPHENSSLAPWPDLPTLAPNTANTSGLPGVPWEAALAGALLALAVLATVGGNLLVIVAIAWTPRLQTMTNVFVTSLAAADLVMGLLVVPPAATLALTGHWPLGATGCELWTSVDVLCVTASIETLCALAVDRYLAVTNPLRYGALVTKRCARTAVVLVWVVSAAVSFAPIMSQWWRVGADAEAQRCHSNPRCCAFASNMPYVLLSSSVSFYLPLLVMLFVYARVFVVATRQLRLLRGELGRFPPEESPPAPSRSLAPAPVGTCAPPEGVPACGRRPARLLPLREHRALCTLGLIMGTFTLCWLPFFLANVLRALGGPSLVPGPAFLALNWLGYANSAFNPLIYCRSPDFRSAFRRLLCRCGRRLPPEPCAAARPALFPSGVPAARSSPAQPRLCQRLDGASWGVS
T2 sequence (P08588 whole entry): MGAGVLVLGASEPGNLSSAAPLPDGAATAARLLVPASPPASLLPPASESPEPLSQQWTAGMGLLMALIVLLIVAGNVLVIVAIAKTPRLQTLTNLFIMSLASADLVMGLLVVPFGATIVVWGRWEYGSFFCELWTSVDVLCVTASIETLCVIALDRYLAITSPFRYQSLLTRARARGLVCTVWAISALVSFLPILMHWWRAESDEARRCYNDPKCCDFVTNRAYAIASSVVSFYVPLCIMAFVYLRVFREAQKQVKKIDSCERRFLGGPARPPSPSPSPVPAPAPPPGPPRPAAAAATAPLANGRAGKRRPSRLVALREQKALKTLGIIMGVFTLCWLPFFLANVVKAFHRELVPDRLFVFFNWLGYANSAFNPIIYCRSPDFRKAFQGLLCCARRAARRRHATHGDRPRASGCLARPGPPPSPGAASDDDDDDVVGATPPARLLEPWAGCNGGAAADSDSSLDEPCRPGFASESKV

Row | SMILES | β2 receptor % of Control Agonist Response [1] | β1 receptor % of Control Agonist Response [2] | α1 receptor % of Control Agonist Response, Control; Epinephrine [3] | α1 receptor % of Control Agonist Response, Control; Norepinephrine [3] | Emax [4] | Emax [5] | EC50 [5] | α1A receptor I.A. [4] | β3 receptor I.A. [5] | Emax [6] | increase in MBP (%) [7, 9] | Emax [8] | number of experimental animals matching Score 0 (no piloerection) (Male C57BL/6 Cr mice) | β1 receptor I.A. [6] | increase in MBP (%) ([7]; rat, in vivo, iv, 3 mg/kg) | β2 receptor I.A. [8] | increase in MBP (%) [7, 10]
1 | O=S(=O)(Nc1cccc([C@@H](O)CNCCOc2ccc3c(Cl)n[nH]c3c2)c1)c1ccccc1F [ex158, (R)-N-(3-(2-(2-(3-chloroindazol-6-yloxy)ethylamino)-1-hydroxyethyl)phenyl)-2-fluorobenzene-sulfonamide] | 1.6% | 17% | 7.8% | 6.7% | 0% | 90% | 62 nM |  |  |  |  |  |  |  |  |  | 
2 | Cc1n[nH]c2cc(OCCNC[C@H](O)c3cccc(NS(=O)(=O)c4c(F)cccc4F)c3)ccc12 [ex71, (R)-2,6-difluoro-N-(3-(1-hydroxy-2-(2-(3-methylindazol-6-yloxy)ethylamino)ethyl)phenyl) benzenesulfonamide] | 1.5% | 32% | 4.3% | 3.7% |  |  | 152 nM | 2% | 96% |  |  |  |  |  |  |  | 
3 | COc1n[nH]c2cc(OCCNC[C@H](O)c3cccc(NS(=O)(=O)c4ccsc4)c3)ccc12 [ex11, (R)-N-(3-(1-hydroxy-2-(2-(3-methoxyindazol-6-yloxy)ethylamino)ethyl)phenyl) thiophene-3-sulfonamide] |  |  |  |  | 0% | 115% | 3.2 nM |  |  | 3% | 6.1 ± 3.7% | 3% |  |  |  |  | 
4 | COc1n[nH]c2cc(OCCNC[C@H](O)c3cccc(NS(=O)(=O)c4ccsc4)c3)ccc12 [ex46, (R)-N-(3-(1-hydroxy-2-(2-(3-methoxyindazol-6-yloxy)-ethylamino)ethyl)phenyl)thio-phene-3-sulfonamide] |  |  |  |  |  |  | 2.4 nM | 0% | 78% |  |  |  | 4 | 5% | 5.6 ± 1.1% | −2% | 
5 | O=S(=O)(Nc1cccc([C@@H](O)CNCCOc2ccc3c(OC(F)F)n[nH]c3c2)c1)c1ccccc1F [ex107, (R)-N-(3-(2-(2-(3-(difluoromethoxy)-indazol-6-yloxy)ethylamino)-1-hydroxyethyl)phenyl)-2-fluorobenzene-sulfonamide] | −0.6% | 8.7% | 17% | 14% | 1% | 75% | 101 nM |  |  |  |  |  |  |  |  |  | 
6 | COc1n[nH]c2cc(OCCNC[C@H](O)c3cccc(NS(=O)(=O)c4cccc(N)c4)c3)ccc12 [ex41, (R)-3-amino-N-(3-(1-hydroxy-2-(2-(3-methoxyindazol-6-yloxy)ethylamino)ethyl)phenyl) benzenesulfonamide] |  |  |  |  |  |  | 0.21 nM | 0% | 76% |  |  |  |  | 12% |  | 5% | 5.7 ± 0.8%
7 | Cc1n[nH]c2cc(OCCNC[C@H](O)c3cccc(NS(=O)(=O)c4cc(F)ccc4F)c3)ccc12 [ex72, (R)-2, ? -difluoro-N-(3-(1-hydroxy-2-(2-(3-methylindazol-6-yloxy)ethylamino)ethyl)phenyl) benzenesulfonamide] | 1.8% | 19% | 6.8% | 5.9% | 1% | 92% | 8.3 nM |  |  |  |  |  |  |  |  |  | 
8 | COc1n[nH]c2cc(OCCNC[C@H](O)c3cccc(NS(=O)(=O)c4cccs4)c3)ccc12 [ex2, (R)—N-(3-(1-hydroxy-2-(2-(3-methoxyindazol-6-yloxy)ethylamino)ethyl)phenyl)thiophene-2-sulfonamide] |  |  |  |  | 0% | 109% | 3.5 nM |  |  | 6% | 4.9 ± 0.9% | 3% |  |  |  |  | 
9 | Cc1n[nH]c2cc(OCCNC[C@H](O)c3cccc(NS(=O)(=O)c4cn[nH]c4)c3)ccc12 [ex82, (R)-N-(3-(1-hydroxy-2-(2-(3-methylindazol-6-yloxy)ethylamino)ethyl)phenyl)py-razole-4-sulfonamide] |  |  |  |  | 13% | 71% | 16 nM |  |  | 7% |  | 2% |  |  |  |  | 5.7 ± 0.8%
